The source of these data is patent publication US20230416196A1, “DIMER OF BIGUANIDINES AND THEIR THERAPEUTIC USES” (INSTITUT CURIE, priority 2020, published 2023).

The subject of one experiment is monocytes. In words: Activation of monocytes (CD25, CD80 flow cytometry). The format is cell-based, human. The settings on record: LCC-12 10 μM, 24 h, LPS; FIG. 6D. Here is the method:
Monocytes. Peripheral blood samples were collected from healthy donors (Etablissement Français du Sang). Pan monocytes were isolated by negative magnetic sorting using microbeads according to the manufacturer's instructions (Miltenyi Biotec, 130-096-537), and cultured in RPMI 1640 supplemented with glutamine, 10% fetal bovine serum. Monocytes were treated with lipopolysaccharides (LPS, 100 ng/mL, 24 h) to generate activated monocytes and were co-treated with LCC-12 (in-house, 10 μM, 24 h). The activation status of the monocytes was assessed by measuring CD25 and CD80 surface markers by flow cytometry.
A general note: A flow cytometer gives signals particle by particle.

Experiment [1] has as its system mitochondrial NAD^+ and NADH in aMDM. Kind of experiment: Mass spectrometry-based metabolomics of mitochondrial NAD+ and NADH in aMDM. The class given is cell-based, human. To be noted: treatment during macrophage activation; FIG. 11D. Here is the method:
Mitochondrial extraction. Mitochondria were isolated using the Qproteome Mitochondria Isolation Kit (Qiagen, 37612) according to the manufacturer's protocol. In brief, cells were washed and centrifuged at 500× g for 10 min and the supernatant was removed. Cells were then washed with a solution of 0.9% NaCl (Sigma-Aldrich, 57653-250G) and resuspended in ice-cold Lysis Buffer and incubated at 4° C. for 10 min. The lysate was then centrifuged at 1000×g for 10 min at 4° C. and the supernatant carefully removed. Subsequently, the cell pellet was resuspended in disruption buffer. Complete cell disruption was obtained by using a dounce homogenizer (mitochondria for ICP-MS) or a blunt-ended needle and a syringe (mitochondria for metabolomics). The lysate was then centrifuged at 1000× g for 10 min at 4° C. and the supernatant transferred to a clean tube. The supernatant was then centrifuged at 6000× g for 10 min at 4° C. to obtain pellets containing mitochondria.
Quantitative metabolomics. In a typical experiment 1.5 million cells were used for total extracts and 15 million cells for mitochondrial extracts. Cells were harvested and the supernatant removed to generate the corresponding cell pellets. […] Peak detection and integration of the analytes were performed using the Agilent Mass Hunter quantitative software (B.07.01). […]

A further experiment deals with mice challenged with LPS. In words: Murine model of LPS-induced severe inflammation. The class given is in vivo, BALB/c mice. The settings on record: LPS 20 mg/kg IP; LCC-12 0.3 mg/kg IP; dexamethasone 10 mg/kg PO as comparator; FIG. 4D. Here is the method:
Murine model of LPS-induced severe inflammation. Animal work was conducted at Fidelta Ltd according to 2010/63/EU and National legislation regulating the use of laboratory animals in scientific research and for other purposes (Official Gazette 55/13). An Institutional Committee on Animal Research Ethics (CARE-Zg) oversaw that animal-related procedures were not compromising the animal welfare. LPS (Sigma-Aldrich, L2630, 20 mg/kg) was injected intraperitoneally to male BALB/c mice (8 weeks-old). LCC-12 (0.3 mg/kg, IP, n=10) or vehicle (0.9% NaCl, 10 mL/kg, IP, n=10) were injected 2 h prior LPS challenge, then 24 h, 48 h, 72 h and 96 h post challenge. Dexamethasone (10 mg/kg, PO, n=10) was given 1 h prior LPS challenge. Incidence of mortality was monitored every 4 h up to 48 h, then twice daily.

Take `N=C(N)NC(=N)NCCCCCCCCCCCCNC(=N)NC(=N)N` [LCC-12, lipophilic copper clamp C12]: in the experiment with monocytes, the activation of monocytes result is “decreases the activation”. For the same compound, the “mitochondrial NAD^+ and NADH levels” value in experiment [1] is “decrease of both mitochondrial NAD^+ and NADH”. The “survival of mice challenged with LPS” value in the experiment with mice challenged with LPS is reported as “increased the survival of mice challenged with LPS to a similar extent than dexamethasone”.
